Source: PubChem BioAssay AID1259407 (Chemical Carcinogenesis Research Information System (CCRIS), 2018)
The source made the active and inactive calls. No rule for the calls is given here.

System: CCRIS mutagenicity, Ames/micronucleus/aberration tests
Assay: CCRIS mutagenicity studies
[1] = Test System: AMES SALMONELLA TYPHIMURIUM, Strain/Indicator: TA98, Metabolic Activation: NONE, Method: STANDARD PLATE
[2] = Test System: AMES SALMONELLA TYPHIMURIUM, Strain/Indicator: TA98, Metabolic Activation: RAT, LIVER, S-9, PCB, Method: PREINCUBATION
[3] = Test System: AMES SALMONELLA TYPHIMURIUM, Strain/Indicator: TA100, Metabolic Activation: NONE, Method: PREINCUBATION
[4] = Test System: AMES SALMONELLA TYPHIMURIUM, Strain/Indicator: TA100, Metabolic Activation: NONE, Method: STANDARD PLATE
[5] = Test System: AMES SALMONELLA TYPHIMURIUM, Strain/Indicator: TA100, Metabolic Activation: RAT, LIVER, S-9, PCB, Method: PREINCUBATION

O=C1c2cccc(O)c2C(=O)c2c(O)cc(CO)cc21
mutagenic call (Test System: AMES SALMONELLA TYPHIMURIUM, Strain/Indicator: TA97A, Metabolic Activation: NONE, Method: STANDARD PLATE): active; positive
mutagenic call (Test System: AMES SALMONELLA TYPHIMURIUM, Strain/Indicator: TA97A, Metabolic Activation: RAT, LIVER, S-9, AROCLOR 1254, Method: STANDARD PLATE): active; positive
mutagenic call [1]: active; positive
mutagenic call [2]: inactive; negative
mutagenic call (Test System: AMES SALMONELLA TYPHIMURIUM, Strain/Indicator: TA98, Metabolic Activation: RAT, LIVER, S-9, Method: PREINCUBATION): active; positive
mutagenic call [3]: inactive; negative
mutagenic call [4]: inactive; negative
mutagenic call (Test System: AMES SALMONELLA TYPHIMURIUM, Strain/Indicator: TA100, Metabolic Activation: RAT, LIVER, S-9, AROCLOR 1254, Method: STANDARD PLATE): inactive; negative
mutagenic call [5]: active; positive
mutagenic call (Test System: AMES SALMONELLA TYPHIMURIUM, Strain/Indicator: TA102, Metabolic Activation: NONE, Method: STANDARD PLATE): inactive; negative
mutagenic call (Test System: AMES SALMONELLA TYPHIMURIUM, Strain/Indicator: TA102, Metabolic Activation: RAT, LIVER, S-9, AROCLOR 1254, Method: STANDARD PLATE): active; positive
mutagenic call (Test System: AMES SALMONELLA TYPHIMURIUM, Strain/Indicator: TA102, Metabolic Activation: RAT, LIVER, S-9, Method: PREINCUBATION): active; positive
mutagenic call (Test System: AMES SALMONELLA TYPHIMURIUM, Strain/Indicator: TA1535, Metabolic Activation: NONE, Method: STANDARD PLATE): inactive; negative
mutagenic call (Test System: AMES SALMONELLA TYPHIMURIUM, Strain/Indicator: TA1535, Metabolic Activation: RAT, LIVER, S-9, AROCLOR 1254, Method: STANDARD PLATE): inactive; negative
mutagenic call (Test System: AMES SALMONELLA TYPHIMURIUM, Strain/Indicator: TA1537, Metabolic Activation: NONE, Method: PREINCUBATION): active; positive
mutagenic call (Test System: AMES SALMONELLA TYPHIMURIUM, Strain/Indicator: TA1537, Metabolic Activation: NONE, Method: STANDARD PLATE): active; positive
mutagenic call (Test System: AMES SALMONELLA TYPHIMURIUM, Strain/Indicator: TA1537, Metabolic Activation: RAT, LIVER, S-9, Method: PREINCUBATION): active; positive
mutagenic call (Test System: AMES SALMONELLA TYPHIMURIUM, Strain/Indicator: TA1538, Metabolic Activation: NONE, Method: PREINCUBATION): active; positive
mutagenic call (Test System: AMES SALMONELLA TYPHIMURIUM, Strain/Indicator: TA1538, Metabolic Activation: NONE, Method: STANDARD PLATE): active; positive
mutagenic call (Test System: AMES SALMONELLA TYPHIMURIUM, Strain/Indicator: TA1538, Metabolic Activation: RAT, LIVER, S-9, AROCLOR 1254, Method: STANDARD PLATE): active; positive
mutagenic call (Test System: AMES SALMONELLA TYPHIMURIUM, Strain/Indicator: TA1538, Metabolic Activation: RAT, LIVER, S-9, Method: PREINCUBATION): active; positive
mutagenic call (Test System: AMES SALMONELLA TYPHIMURIUM, Strain/Indicator: TA1978, Metabolic Activation: NONE, Method: PREINCUBATION): active; positive
mutagenic call (Test System: AMES SALMONELLA TYPHIMURIUM, Strain/Indicator: TA1978, Metabolic Activation: RAT, LIVER, S-9, Method: PREINCUBATION): inactive; negative
mutagenic call (Test System: CHINESE HAMSTER V-79, Strain/Indicator: V-79 (HGPRT)/6-THIOGUANINE, Metabolic Activation: NONE): inactive; negative
mutagenic call (Test System: CHINESE HAMSTER V-79, Strain/Indicator: V-79 (HPRT)/6-THIOGUANINE, Metabolic Activation: NONE): inactive; negative
mutagenic call (Test System: CHINESE HAMSTER V-79, Strain/Indicator: V-79 (HPRT)/6-THIOGUANINE, Metabolic Activation: RAT, LIVER, S-9, AROCLOR 1254): inactive; negative
mutagenic call (Test System: CHINESE HAMSTER V-79, Strain/Indicator: V-79/8-AZAGUANINE, Metabolic Activation: NONE, Method: STANDARD PLATE): active; positive
mutagenic call (Test System: UDS RAT HEPATOCYTES, Strain/Indicator: THY INCORP, Metabolic Activation: NONE, Method: AUTORADIOGRAPHY): inactive; negative
mutagenic call (Test System: UDS RAT HEPATOCYTES, Strain/Indicator: THY INCORP, Metabolic Activation: NONE, Method: IN VIVO-IN VITRO): inactive; negative
mutagenic call (Test System: UDS RODENT HEPATOCYTES, Strain/Indicator: THY INCORP (NON-S-PHASE), Metabolic Activation: NONE, Method: AUTORADIOGRAPHY): active; positive

CC1=CC(C=O)C(C=O)=C[C@@H]2CC(C)(C)C[C@H]12 (stereo not given in full)
mutagenic call [1]: inactive; negative
mutagenic call [4]: inactive; negative
mutagenic call (Test System: AMES SALMONELLA TYPHIMURIUM, Strain/Indicator: TA2637, Metabolic Activation: NONE, Method: STANDARD PLATE): inactive; negative
mutagenic call (Test System: CHINESE HAMSTER V-79, Strain/Indicator: V-79/6-THIOGUANINE (HGPRT), Metabolic Activation: NONE): inactive; negative

O=[N+]([O-])c1ccc2c3c(cccc13)-c1cc(O)ccc1-2
mutagenic call (Test System: AMES SALMONELLA TYPHIMURIUM, Strain/Indicator: TA98(1,8-DNP6), Metabolic Activation: NONE, Method: STANDARD PLATE): inactive; negative
mutagenic call (Test System: AMES SALMONELLA TYPHIMURIUM, Strain/Indicator: TA98(NR), Metabolic Activation: NONE, Method: STANDARD PLATE): active; positive
mutagenic call [1]: active; positive
mutagenic call (Test System: AMES SALMONELLA TYPHIMURIUM, Strain/Indicator: TA98, Metabolic Activation: RAT, LIVER, S-9, AROCLOR 1254, Method: STANDARD PLATE): active; positive
mutagenic call (Test System: AMES SALMONELLA TYPHIMURIUM, Strain/Indicator: TA100(NR), Metabolic Activation: NONE, Method: STANDARD PLATE): inactive; negative
mutagenic call (Test System: AMES SALMONELLA TYPHIMURIUM, Strain/Indicator: TA100(TN5-1,8-DNP1012), Metabolic Activation: NONE, Method: STANDARD PLATE): inactive; negative
mutagenic call [4]: active; positive

CNc1ccc2ncc(-c3ccccc3)nc2c1C
mutagenic call (Test System: AMES SALMONELLA TYPHIMURIUM, Strain/Indicator: TA98, Metabolic Activation: NONE, Method: PREINCUBATION): inactive; negative
mutagenic call [2]: active; positive
mutagenic call [3]: inactive; negative
mutagenic call [5]: active; positive
